Assays:
D. armandi antennae = experiment: Electroantennogram (EAG) of antennae after RNAi of DarmCSP2; parameters: species or system Dendroctonus armandi; details: 48 h post-injection; semiochemical 10 μg/μL in hexane; compared with non-injected and water-injected controls; P < 0.05
Procedure: Freshly and synchronously emerged adults were anesthetized on glass petri dishes placed for 30 min in an ice bath, before injection with 0.2 μL dsCSP2 into the hemocoel at the suture under the hindleg. Injections used Hamilton Microliter™ syringes (700 series, RN) with 32G sharp-point needles (Hamilton, Switzerland). Controls were either injected with 0.2 μL DEPC-treated water or not injected. Subjects were then transferred onto wet filter paper placed in clear glass petri dishes for continuous culture (at 20 ± 1°C, 50% humidity). Three males and three females were removed at different time intervals (12, 24, and 48 h) from each treatment group for storage at −80°C until qRT-PCR analysis. Three replicates were performed per treatment group (non-injected, water-injected, dsCSP2-injected). RNA isolation, cDNA synthesis, and qRT-PCR procedure followed methods described above (“RNA isolation and cDNA synthesis” and “Expression patterns of CSP genes across different life stages and tissues”).
Electroantennograms (EAG) were used to detect RNAi efficiency of dsCSP2 and determine DarmCSP2 function in binding semiochemicals. Methods were modified from a previous study (Zhang et al., [2010]). Subject beetles were chosen based on post-RNAi qRT-PCR and anesthetized in an ice bath. Antennae were carefully excised at their base with a scalpel and immediately connected between two electrode holders using Spectra 360 electrode gel.
Semiochemicals were selected based on the results of fluorescence binding assays and dissolved to 10 μg/μL in hexane. Hexane alone acted as a blank control and 1 μg/μL 1-hexanol was used as a standard to normalize all EAG recordings (Zhang et al., [2010]). Semiochemical solutions (20 μL) were loaded onto filter paper strips (5 × 30 mm) and then transferred into a Pasteur pipette. The pipette tip was then inserted into a small hole in the wall of a steel tube (15 mm diameter × 15 cm length). The tube was connected to an air stimulus controller (CS-05b Syntech, the Netherlands) for constant humidified airflow delivery at a rate of 40 mL/min. The open end of the tube was positioned 1 cm before an antenna affixed between two electrode holders.
To stimulate the antenna, semiochemical-containing air was introduced through the pipette into the main air flow at a rate of 20 mL/min for 0.2 s. Each stimulus was separated by at least a 1 min interval to ensure complete antenna recovery. Signals were recorded using an IDAC-2 unit plus amplifier and Syntech EAG 2000 (Syntech, Netherlands). The control and standard were tested before and after every semiochemical solution. Antennae from12 individuals (six males and six females) were tested, with three replicates per antenna. To calculate EAG values, mean responses of the solvent control before and after exposure were subtracted from mean sample responses, then converted to a percentage of the accompanying standard (Zhang et al., [2010]).

DarmCSP2 = DarmCSP2 (Dendroctonus armandi, UniProt A0A3S7PYZ0); experiment: Fluorescence competitive binding assay (1-NPN displacement); details: for IC50: 2 μM DarmCSP2 and 2 μM 1-NPN titrated with ligand 2–16 μM, three independent measurements; for Ki: calculated from IC50: KD = [IC50]/(1+[1-NPN]/K1-NPN)
Procedure: A Hitachi F-4500 fluorescence spectrophotometer was used to measure emission fluorescence spectra, in a right-angle configuration with a 1 cm light-path quartz cuvette. The slit width was […] for both excitation and emission. DarmCSPs were dissolved to 2 μM in 50 mM Tris-HCl buffer (pH = 7.4), whereas fluorescent probe N-phenyl-1-naphthylamine (1-NPN) and all semiochemicals were dissolved in methanol with a 1 mM stock solution. […] Excitation of 1-NPN occurred at 337 nm, with the emission spectra recorded from 360 to 500 nm. Corresponding fluorescence intensity values were plotted against free 1-NPN concentration to determine DarmCSP binding constants. Bound 1-NPN concentrations were assessed based on fluorescence intensity, assuming DarmCSPs were 100% active and protein: ligand = 1:1 at saturation. The dissociation-constants curve was linearized with Scatchard plots in Prism 6.0 (GraphPad Software, CA, USA).
Ligand affinity was measured with competitive binding assays. Fourteen compounds were selected based on previous reports (Zhang et al., [2010]; Xie and Lv, [2012]; Chen et al., [2015]; Zhao et al., [2017a],[b]), including 10 host volatiles and four D. armandi pheromones (Table 2). A mixture of 2 μM DarmCSP and 2 μM 1-NPN was titrated with each ligand to final concentrations of 2–16 μM. Corresponding fluorescence intensities were recorded from three independent measurements. Dissociation constants of competitive ligands were calculated according to IC50 values, using the equation: KD = [IC50]/(1+[1-NPN]/K1−NPN), where IC50 is competitive-ligand concentration at half the initial fluorescence of 1-NPN, 1-NPN is the concentration of free 1-NPN, and K1−NPN is the dissociation constant of DarmCSP with 1-NPN.

DarmCSP1 = experiment: Fluorescence binding assay of 1-NPN with DarmCSP1; parameters: species or system Dendroctonus armandi; details: DarmCSP1, 2 μM protein titrated with 1-NPN
Description: (§1) To better characterize DarmCSP function, three antennae-preferential genes (DarmCSP 1–3) were chosen for expression in bacteria. Signal peptides were removed to generate properly folded proteins. PCR products encoding mature proteins were amplified using gene-specific primers (Table S1), cloned into pGEM-T easy vectors (Promega, Madison, USA), then excised and cloned into the bacterial expression vector pET32a(+) (Novagen, Madison, WI), between BamHI and XhoI restriction sites. Successful cloning was verified through PCR and sequencing. Plasmids containing the correct insert were extracted and transformed into E. coli BL21 (DE3) competent cells. Positive clones were incubated at 37°C until absorbance = 0.6 at OD 600, and protein expression was induced with IPTG (isopropyl-β-D-1-thiogalactopyranoside) treatment (28°C for 6 h) to a final concentration of 0.5 mM. […]
(§2) Recombinant proteins were purified with N-termini His tagged from the supernatant using a Ni-NTA-Sefinose Column (Sangon, Shanghai, China), and placed in a buffer (25 mM Tris-HCl, 50 mM NaCl, and 2 mM CaCl2, pH 7.6) for dialysis. To avoid confounding effects in fluorescence binding assays, His-tags were excised using Recombinant Enterokinase with His-tag (rEK) (Sangong, Shanghai, China), and the resultant complex was cleared through a Ni-NTA-Sefinose Column. […]

DarmCSP3 = experiment: Fluorescence binding assay of 1-NPN with DarmCSP3; parameters: species or system Dendroctonus armandi; details: DarmCSP3, 2 μM protein titrated with 1-NPN
Description: as §1, §2

DarmCSP2, sequence (A0A3S7PYZ0 entry or part of it): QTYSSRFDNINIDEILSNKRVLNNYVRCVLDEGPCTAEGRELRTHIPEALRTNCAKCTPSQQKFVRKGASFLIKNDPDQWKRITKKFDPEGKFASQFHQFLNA

Row | Molecule | Effect of dsCSP2 injection on antennae EAG activity in response to the semiochemical (D. armandi antennae) | IC50 (DarmCSP2) [µM] | Ki (DarmCSP2) [µM] | Affinity to 1-NPN (DarmCSP1) | Affinity to 1-NPN (DarmCSP3)
1 | CC1=CCC2C(C1)C2(C)C (single isomer, unassigned; (+)) [(+)-3-Carene] | significantly reduced | 3.05 ± 0.71 | 1.97 ± 0.46 | – | –
2 | CC[C@@H]1O[C@]2(C)CCC[C@H]1O2 (racemic) [(±)-exo-Brevicomin] | – | 14.48 ± 0.11 | 9.34 ± 0.07 | – | –
3 | (+)-β-Pinene | significantly reduced | 5.9 ± 1.31 | 3.8 ± 0.84 | – | –
4 | (±)-Frontalin | – | 26.2 ± 1.94 | 16.9 ± 1.26 | – | –
5 | CC1=CCC2CC1C2(C)C (stereo not drawn) [(–)-α-Pinene] | – | 2.53 ± 0.11 | 1.64 ± 0.08 | – | –
6 | (S)-(-)-Limonene | – | 5.51 ± 0.42 | 3.41 ± 0.04 | – | –
7 | (–)-β-Pinene | significantly reduced | 5.93 ± 0.17 | 3.83 ± 0.11 | – | –
8 | c1ccc(Nc2cccc3ccccc23)cc1 [1-NPN, N-phenyl-1-naphthylamine] | – | – | – | no obvious affinity | no obvious affinity
9 | C=CC(=C)CCC=C(C)C [Myrcene] | significantly reduced | – | – | – | –
10 | CC1=CC[C@H](C(C)C)C=C1 [(R)-(-)-a-Phellandrene] | – | 8.77 ± 0.24 | 5.66 ± 0.16 | – | –
11 | C=C(C)[C@H]1CC=C(C)CC1 [(R)-(+)-Limonene] | – | 6.36 ± 0.25 | 4.1 ± 0.16 | – | –
12 | C=C1[C@H]2CC[C@H](C2)C1(C)C [(+)-Camphene] | significantly reduced | – | – | – | –
13 | (+)-α-Pinene | significantly reduced | 3.6 ± 0.03 | 2.33 ± 0.02 | – | –
14 | CC1=C[C@H](O)[C@@H]2C[C@H]1C2(C)C (relative stereo) [(-)-trans-Verbenol] | – | 4.33 ± 0.1 | 2.8 ± 0.07 | – | –
